25 molecules from patent US8735398B2 (Bristol-Myers Squibb Company, priority 2009, dated 2014) can be followed below.

One may read the EC50 as the concentration needed to bring the measured effect to its halfway point.

The subject of the first experiment is HCV 1b genotype. Description: HCV replicon assay (HCV-neo replicon cells, wild-type). It is filed as cell-based, Hepatitis C virus. As to conditions: Hepatitis C virus, HCV 1b genotype replicon; class symbol; read-out: EC50 Range against HCV 1b. The method, boiled down:
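Inhibition was tested in replicon-bearing cells, both wild-type HCV-neo and lines with NS5A resistance substitutions, using the O'Boyle et al. 2005 replicon method or luciferase-reporter formats.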
Background: A replicon is a self-replicating genome or part of one, used to study replication in cells.
As for `CCOc1ccccc1C(=O)N1CCC[C@H]1C(=O)Nc1ccc(-c2nnc(-c3ccc(NC(=O)[C@@H]4CCCN4C(=O)c4ccccc4OCC)cc3)o2)cc1` [RK-8, (2S,2′S)-N,N′-(1,3,4-oxadiazole-2,5-diyldi-4,1-phenylene)bis(1-(2-ethoxybenzoyl)-2-pyrrolidinecarboxamide)], the EC50 fell in the range of 1000 to 10000 nM.
`CCc1ccccc1C(=O)N1CCC[C@H]1C(=O)Nc1ccc(-c2nnc(-c3ccc(NC(=O)[C@@H]4CCCN4C(=O)c4ccccc4CC)cc3)o2)cc1` [RK-9, (2S,2′S)-N,N′-(1,3,4-oxadiazole-2,5-diyldi-4,1-phenylene)bis(1-(2-ethylbenzoyl)-2-pyrrolidinecarboxamide)]: the EC50 lay in the range of 100 to 999 nM.
In the case of `O=C(Nc1ccc(-c2nnc(-c3ccc(NC(=O)[C@@H]4CCCN4C(=O)c4ccc5ccccc5n4)cc3)o2)cc1)[C@@H]1CCCN1C(=O)c1ccc2ccccc2n1` [RK-10, (2S,2′S)-N,N′-(1,3,4-oxadiazole-2,5-diyldi-4,1-phenylene)bis(1-(2-quinolinylcarbonyl)-2-pyrrolidinecarboxamide)], the EC50 was in the range of 1000 to 10000 nM.
In the case of `COC(C(=O)N1CCC[C@H]1C(=O)Nc1ccc(-c2nnc(-c3ccc(NC(=O)[C@@H]4CCCN4C(=O)C(OC)c4ccccc4)cc3)o2)cc1)c1ccccc1` (stereo partly drawn) [RK-11, (2S,2′S)-N,N′-(1,3,4-oxadiazole-2,5-diyldi-4,1-phenylene)bis(1-(methoxy(phenyl)acetyl)-2-pyrrolidinecarboxamide)], the EC50 fell in the range of 100 to 999 nM.
On to `O=C(Nc1ccc(-c2nnc(-c3ccc(NC(=O)[C@@H]4CCCN4C(=O)c4cccc(Cl)n4)cc3)o2)cc1)[C@@H]1CCCN1C(=O)c1cccc(Cl)n1` [RK-12, (2S,2′S)-N,N′-(1,3,4-oxadiazole-2,5-diyldi-4,1-phenylene)bis(1-((6-chloro-2-pyridinyl)carbonyl)-2-pyrrolidinecarboxamide)], for which the EC50 was 1000 to 10000 nM.
For `O=C(Nc1ccc(-c2nnc(-c3ccc(NC(=O)[C@@H]4CCCN4C(=O)c4ccco4)cc3)o2)cc1)[C@@H]1CCCN1C(=O)c1ccco1` [RK-13, (2S,2′S)-N,N′-(1,3,4-oxadiazole-2,5-diyldi-4,1-phenylene)bis(1-(2-furoyl)-2-pyrrolidinecarboxamide)], the EC50 was 100 to 999 nM.
The same measure, in the same setting: to `O=C(Nc1ccc(-c2nnc(-c3ccc(NC(=O)[C@@H]4CCCN4C(=O)[C@@H]4CCCO4)cc3)o2)cc1)[C@@H]1CCCN1C(=O)[C@@H]1CCCO1` [RK-14, (2S,2′S)-N,N′-(1,3,4-oxadiazole-2,5-diyldi-4,1-phenylene)bis(1-((2S)-tetrahydro-2-furanylcarbonyl)-2-pyrrolidinecarboxamide)] belongs 100 to 999 nM; to `O=C(Nc1ccc(-c2nnc(-c3ccc(NC(=O)[C@@H]4CCCN4C(=O)[C@H]4CCCO4)cc3)o2)cc1)[C@@H]1CCCN1C(=O)[C@H]1CCCO1` [RK-15, (2S,2′S)-N,N′-(1,3,4-oxadiazole-2,5-diyldi-4,1-phenylene)bis(1-((2R)-tetrahydro-2-furanylcarbonyl)-2-pyrrolidinecarboxamide)], 1000 to 10000 nM; to `O=C(Nc1ccc(-c2nnc(-c3ccc(NC(=O)[C@@H]4CCCN4C(=O)[C@H](O)c4ccccc4)cc3)o2)cc1)[C@@H]1CCCN1C(=O)[C@H](O)c1ccccc1` [RK-16, (2S,2′S)-N,N′-(1,3,4-oxadiazole-2,5-diyldi-4,1-phenylene)bis(1-((2R)-2-hydroxy-2-phenylacetyl)-2-pyrrolidinecarboxamide)], < 4.57 nM.
On to `O=C(Nc1ccc(-c2nnc(-c3ccc(NC(=O)[C@@H]4CCCN4C(=O)[C@@H](O)c4ccccc4)cc3)o2)cc1)[C@@H]1CCCN1C(=O)[C@@H](O)c1ccccc1` [RK-17, (2S,2′S)-N,N′-(1,3,4-oxadiazole-2,5-diyldi-4,1-phenylene)bis(1-((2S)-2-hydroxy-2-phenylacetyl)-2-pyrrolidinecarboxamide)], for which the EC50 is 100 to 999 nM.
`O=C(Nc1ccc(-c2nnc(-c3ccc(NC(=O)[C@@H]4CCCN4C(=O)c4nc(Cl)cc5ccccc45)cc3)o2)cc1)[C@@H]1CCCN1C(=O)c1nc(Cl)cc2ccccc12` [RK-18, (2S,2′S)-N,N′-(1,3,4-oxadiazole-2,5-diyldi-4,1-phenylene)bis(1-((3-chloro-1-isoquinolinyl)carbonyl)-2-pyrrolidinecarboxamide)]: the EC50 was in the range of 1000 to 10000 nM.
On to `COC(C(=O)N[C@@H](C)C(=O)Nc1ccc(-c2nnc(-c3ccc(NC(=O)[C@H](C)NC(=O)C(OC)c4ccccc4)cc3)o2)cc1)c1ccccc1` (stereo partly drawn) [RK-19, (2S,2′S)-N,N′-(1,3,4-oxadiazole-2,5-diyldi-4,1-phenylene)bis(2-((methoxy(phenyl)acetyl)amino)propanamide)], for which the EC50 was in the range of 100 to 999 nM.
For the molecule `C[C@H](NC(=O)c1cccc(Cl)n1)C(=O)Nc1ccc(-c2nnc(-c3ccc(NC(=O)[C@H](C)NC(=O)c4cccc(Cl)n4)cc3)o2)cc1` [RK-20, N,N′-(1,3,4-oxadiazole-2,5-diylbis(4,1-phenyleneimino((2S)-1-oxo-1,2-propanediyl)))bis(6-chloro-2-pyridinecarboxamide)], the EC50 is 1000 to 10000 nM.
With `C[C@H](NC(=O)c1ccco1)C(=O)Nc1ccc(-c2nnc(-c3ccc(NC(=O)[C@H](C)NC(=O)c4ccco4)cc3)o2)cc1` [RK-21, N,N′-(1,3,4-oxadiazole-2,5-diylbis(4,1-phenyleneimino((2S)-1-oxo-1,2-propanediyl)))di(2-furamide)], the EC50 was in the range of 1000 to 10000 nM.
For `COc1cc(C(=O)N[C@@H](C)C(=O)Nc2ccc(-c3nnc(-c4ccc(NC(=O)[C@H](C)NC(=O)c5cc(OC)c6ccccc6n5)cc4)o3)cc2)nc2ccccc12` [RK-22, N,N′-(1,3,4-oxadiazole-2,5-diylbis(4,1-phenyleneimino((2S)-1-oxo-1,2-propanediyl)))bis(4-methoxy-2-quinolinecarboxamide)], the concentration for a half-maximal effect (EC50) was 100 to 999 nM.
With `C[C@H](NC(=O)Cc1ccccc1)C(=O)Nc1ccc(-c2nnc(-c3ccc(NC(=O)[C@H](C)NC(=O)Cc4ccccc4)cc3)o2)cc1` [RK-23, (2S,2′S)-N,N′-(1,3,4-oxadiazole-2,5-diyldi-4,1-phenylene)bis(2-((phenylacetyl)amino)propanamide)], the half-maximal effective concentration (EC50) was in the range of 100 to 999 nM.
With `C[C@H](NC(=O)[C@@H](O)c1ccccc1)C(=O)Nc1ccc(-c2nnc(-c3ccc(NC(=O)[C@H](C)NC(=O)[C@@H](O)c4ccccc4)cc3)o2)cc1` [RK-24, (2S,2′S)-N,N′-(1,3,4-oxadiazole-2,5-diyldi-4,1-phenylene)bis(2-(((2S)-2-hydroxy-2-phenylacetyl)amino)propanamide)], the EC50 lay in the range of 100 to 999 nM.
Consider `O=C(Nc1ccc(-c2nnc(-c3ccc(NC(=O)[C@H]4CCCN4C(=O)c4cccc(F)n4)cc3)o2)cc1)[C@H]1CCCN1C(=O)c1cccc(F)n1` [RK-25, (2R,2′R)-N,N′-(1,3,4-oxadiazole-2,5-diyldi-4,1-phenylene)bis(1-((6-fluoro-2-pyridinyl)carbonyl)-2-pyrrolidinecarboxamide)], for which the EC50 lay within 100 to 999 nM.
As for `COc1cc(C(=O)N2CCC[C@H](C(=O)Nc3ccc(-c4nnc(-c5ccc(NC(=O)[C@H]6CCCN(C(=O)c7cc(OC)c8ccccc8n7)C6)cc5)o4)cc3)C2)nc2ccccc12` [RK-26, (3S,3′S)-N,N′-(1,3,4-oxadiazole-2,5-diyldi-4,1-phenylene)bis(1-((4-methoxy-2-quinolinyl)carbonyl)-3-piperidinecarboxamide)], the EC50 lay in the range of 1000 to 10000 nM.
As to `O=C(Nc1ccc(-c2nnc(-c3ccc(NC(=O)[C@@H]4CCCN4C(=O)c4cc(Cl)ccn4)cc3)o2)cc1)[C@@H]1CCCN1C(=O)c1cc(Cl)ccn1` [RK-27, (2S,2′S)-N,N′-(1,3,4-oxadiazole-2,5-diyldi-4,1-phenylene)bis(1-((4-chloro-2-pyridinyl)carbonyl)-2-pyrrolidinecarboxamide)], the EC50 lay within 100 to 999 nM.
Turning to `C[C@](O)(C(=O)N1CCC[C@H]1C(=O)Nc1ccc(-c2nnc(-c3ccc(NC(=O)[C@@H]4CCCN4C(=O)[C@](C)(O)c4ccccc4)cc3)o2)cc1)c1ccccc1` [RK-28, (2S,2′S)-N,N′-(1,3,4-oxadiazole-2,5-diyldi-4,1-phenylene)bis(1-((2R)-2-hydroxy-2-phenylpropanoyl)-2-pyrrolidinecarboxamide)], the 50% effective concentration (EC50) is < 4.57 nM.
Take `C[C@H](NC(=O)c1cccc(F)n1)C(=O)Nc1ccc(-c2nnc(-c3ccc(NC(=O)[C@H](C)NC(=O)c4cccc(F)n4)cc3)o2)cc1` [RK-29, N,N′-(1,3,4-oxadiazole-2,5-diylbis(4,1-phenyleneimino((2S)-1-oxo-1,2-propanediyl)))bis(6-fluoro-2-pyridinecarboxamide)]: the EC50 was in the range of 1000 to 10000 nM.
For `C[C@H](NC(=O)[C@@](C)(O)c1ccccc1)C(=O)Nc1ccc(-c2nnc(-c3ccc(NC(=O)[C@H](C)NC(=O)[C@@](C)(O)c4ccccc4)cc3)o2)cc1` [RK-30, (2S,2′S)-N,N′-(1,3,4-oxadiazole-2,5-diylbis(4,1-phenyleneimino((2S)-1-oxo-1,2-propanediyl)))bis(2-hydroxy-2-phenylpropanamide)], the EC50 lay within 100 to 999 nM.
With `C[C@H](NC(=O)[C@](C)(O)c1ccccc1)C(=O)Nc1ccc(-c2nnc(-c3ccc(NC(=O)[C@H](C)NC(=O)[C@](C)(O)c4ccccc4)cc3)o2)cc1` [RK-31, (2R,2′R)-N,N′-(1,3,4-oxadiazole-2,5-diylbis(4,1-phenyleneimino((2S)-1-oxo-1,2-propanediyl)))bis(2-hydroxy-2-phenylpropanamide)], the EC50 lay in the range of 100 to 999 nM.
In the case of `COc1cccc2c(C(=O)N3CCC[C@H]3C(=O)Nc3ccc(-c4nnc(-c5ccc(NC(=O)[C@@H]6CCCN6C(=O)c6nc(Cl)cc7c(OC)cccc67)cc5)o4)cc3)nc(Cl)cc12` [RK-32, (2S,2′S)-N,N′-(1,3,4-oxadiazole-2,5-diyldi-4,1-phenylene)bis(1-((3-chloro-5-methoxy-1-isoquinolinyl)carbonyl)-2-pyrrolidinecarboxamide)], the 50% effective concentration (EC50) lay within 100 to 999 nM.

Still in this experiment, the particulars now being: Hepatitis C virus, HCV 1b genotype replicon; read-out: EC50 1b.
Consider `CCOc1ccccc1C(=O)N1CCC[C@H]1C(=O)Nc1ccc(-c2nnc(-c3ccc(NC(=O)[C@@H]4CCCN4C(=O)c4ccccc4OCC)cc3)o2)cc1` [RK-8, (2S,2′S)-N,N′-(1,3,4-oxadiazole-2,5-diyldi-4,1-phenylene)bis(1-(2-ethoxybenzoyl)-2-pyrrolidinecarboxamide)], for which the EC50 stood at 1850 nM.
On to `O=C(Nc1ccc(-c2nnc(-c3ccc(NC(=O)[C@@H]4CCCN4C(=O)c4cccc(Cl)n4)cc3)o2)cc1)[C@@H]1CCCN1C(=O)c1cccc(Cl)n1` [RK-12, (2S,2′S)-N,N′-(1,3,4-oxadiazole-2,5-diyldi-4,1-phenylene)bis(1-((6-chloro-2-pyridinyl)carbonyl)-2-pyrrolidinecarboxamide)], for which the EC50 was found to be 3960 nM.
Still for that read-out and setting: under `O=C(Nc1ccc(-c2nnc(-c3ccc(NC(=O)[C@@H]4CCCN4C(=O)[C@H](O)c4ccccc4)cc3)o2)cc1)[C@@H]1CCCN1C(=O)[C@H](O)c1ccccc1` [RK-16, (2S,2′S)-N,N′-(1,3,4-oxadiazole-2,5-diyldi-4,1-phenylene)bis(1-((2R)-2-hydroxy-2-phenylacetyl)-2-pyrrolidinecarboxamide)] stands < 5 nM.
On the same count and under the same terms, to `C[C@](O)(C(=O)N1CCC[C@H]1C(=O)Nc1ccc(-c2nnc(-c3ccc(NC(=O)[C@@H]4CCCN4C(=O)[C@](C)(O)c4ccccc4)cc3)o2)cc1)c1ccccc1` [RK-28, (2S,2′S)-N,N′-(1,3,4-oxadiazole-2,5-diyldi-4,1-phenylene)bis(1-((2R)-2-hydroxy-2-phenylpropanoyl)-2-pyrrolidinecarboxamide)] belongs 3 nM.
